From patent US4914127A, “3-Demethylmevalonic acid derivatives, a process for their preparation pharmaceutical products based on these compounds, their use and intermediates” (Hoechst Aktiengesellschaft, priority 1985, dated 1990)
Where two headings read alike, the source gives them in different places.

What was measured:
HMG-CoA reductase = target: T1, HMG-CoA reductase (Rattus norvegicus, UniProt P51639); assay: HMG-CoA reductase activity in solubilized enzyme preparations from liver microsomes of rats; assay type: biochemical; details: 14C-HMG-CoA substrate, mean from 3 parallel samples, read-out: IC50 [M], inhibition of HMG-CoA reductase
T1 construct: solubilized enzyme preparations from liver microsomes of rats; from tissue; host or cells: liver microsomes of cholestyramine-induced rats
T1 sequence (P51639 1-887): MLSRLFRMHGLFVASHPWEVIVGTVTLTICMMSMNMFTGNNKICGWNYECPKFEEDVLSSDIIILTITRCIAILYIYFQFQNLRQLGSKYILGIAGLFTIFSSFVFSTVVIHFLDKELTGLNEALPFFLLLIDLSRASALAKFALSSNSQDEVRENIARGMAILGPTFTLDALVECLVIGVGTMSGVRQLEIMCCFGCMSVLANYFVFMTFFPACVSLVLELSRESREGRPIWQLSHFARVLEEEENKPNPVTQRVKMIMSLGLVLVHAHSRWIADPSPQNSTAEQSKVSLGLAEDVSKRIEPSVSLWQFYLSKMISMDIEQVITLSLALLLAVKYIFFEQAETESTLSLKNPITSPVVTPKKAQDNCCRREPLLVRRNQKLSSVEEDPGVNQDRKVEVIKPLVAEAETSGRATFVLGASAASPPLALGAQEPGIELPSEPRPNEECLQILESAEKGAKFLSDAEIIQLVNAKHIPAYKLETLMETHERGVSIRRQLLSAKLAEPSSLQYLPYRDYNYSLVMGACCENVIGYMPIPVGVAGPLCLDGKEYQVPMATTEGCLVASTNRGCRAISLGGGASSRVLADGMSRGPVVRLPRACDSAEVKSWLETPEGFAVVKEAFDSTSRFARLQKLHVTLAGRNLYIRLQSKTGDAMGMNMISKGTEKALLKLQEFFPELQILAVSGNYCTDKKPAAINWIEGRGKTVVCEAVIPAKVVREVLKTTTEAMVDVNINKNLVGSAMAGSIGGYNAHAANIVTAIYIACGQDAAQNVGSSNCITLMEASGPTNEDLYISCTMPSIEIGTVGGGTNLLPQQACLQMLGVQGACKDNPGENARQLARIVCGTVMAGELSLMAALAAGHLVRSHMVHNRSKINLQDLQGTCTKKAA
Description: 1. HMG-CoA reductase activity in enzyme preparations
The HMG-CoA reductase activity was measured on solubilized enzyme preparations from liver microsomes of rats which, after the day/night rhythm had been changed, were induced with cholestyramine (®Cuemid). The substrate used was (S,R) ^14 C-HMG-CoA, and the concentration of NADPH was maintained during the incubation by a regenerating system. ^14 C-Mevalonate was removed from the substrate and other products (for example ^14 C-HMG) by column elution, the elution profile for each individual sample being determined. Constant inclusion of ^3 H-mevalonate was dispensed with because the determination was of the relative inhibitory effect. In each series of tests, the control containing no enzyme, and the normal mixture containing enzyme (=100%) and those with added products, final concentration 10^-5 to 10^-9 M, were treated together. Each individual figure was formed as the mean from 3 parallel samples. The signficance of the differences in the means between samples containing no product and those containing product was assessed by the t test.
Using the method described above, the following figures for the inhibition of HMG-CoA reductase were determined for the compounds according to the invention, for example: […]

[1] = target: T2, HMG-CoA reductase (in HEP-G2 cells) (Homo sapiens, UniProt P04035); assay: Suppression or inhibition of HMG-CoA reductase in cell cultures (HEP-G2 cells; method described for fibroblasts, L cells); assay type: cell-based
T2 construct: endogenous in cells; host or cells: HEP-G2 cells
T2 sequence (P04035 1-888): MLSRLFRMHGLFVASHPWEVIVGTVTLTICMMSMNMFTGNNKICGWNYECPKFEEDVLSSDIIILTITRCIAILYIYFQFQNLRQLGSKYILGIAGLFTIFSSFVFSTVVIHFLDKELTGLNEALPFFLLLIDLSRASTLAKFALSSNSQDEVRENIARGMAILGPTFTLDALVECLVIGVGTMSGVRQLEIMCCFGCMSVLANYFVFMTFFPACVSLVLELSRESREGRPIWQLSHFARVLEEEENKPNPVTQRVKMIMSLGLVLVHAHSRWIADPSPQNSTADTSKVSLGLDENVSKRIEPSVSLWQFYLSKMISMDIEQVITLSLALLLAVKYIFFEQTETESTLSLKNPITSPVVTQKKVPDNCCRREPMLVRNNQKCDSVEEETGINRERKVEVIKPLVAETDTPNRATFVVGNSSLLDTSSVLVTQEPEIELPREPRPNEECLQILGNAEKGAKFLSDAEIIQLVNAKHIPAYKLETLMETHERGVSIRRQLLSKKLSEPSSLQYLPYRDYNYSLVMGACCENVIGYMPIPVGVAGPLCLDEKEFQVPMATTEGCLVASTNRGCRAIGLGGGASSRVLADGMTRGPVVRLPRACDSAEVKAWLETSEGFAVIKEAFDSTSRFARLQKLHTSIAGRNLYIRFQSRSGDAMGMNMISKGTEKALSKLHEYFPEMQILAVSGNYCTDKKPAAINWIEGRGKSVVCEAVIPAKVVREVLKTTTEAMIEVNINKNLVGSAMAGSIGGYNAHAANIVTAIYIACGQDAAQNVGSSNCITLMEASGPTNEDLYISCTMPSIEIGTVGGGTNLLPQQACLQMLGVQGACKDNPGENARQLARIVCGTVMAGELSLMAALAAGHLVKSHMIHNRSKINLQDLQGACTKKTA
Description: 2. Suppression or inhibition of HMG-CoA reductase in cell cultures of fibroblasts.
Monolayers of fibroblasts (L cells) in lipoprotein-free nutrient medium were incubated with appropriate concentrations of test substances for a specified period (for example 3 hours) and then the HMG-CoA reductase activity of the cells was determined by modification of the method of Chang et al. (J. Biol. Chem. 256, 6174 (1981)). For this purpose, the cell extracts were incubated with D,L-[^3 H]-HMG-CoA, and the product [^3 H]-mevalonate formed from the cells by the action of the HMG-CoA reductase activity present was, after cyclization to [^3 H]-mevalonolactone, separated from the starting material by thin-layer chromatography and, by use of an internal standard of [^14 C]-mevalonate, the amount of [^3 H]-mevalonate formed in unit time was determined and related to the amount of cellular protein.

[2] = in the rat; cited from earlier work
[3] = in human trials; cited from earlier work
[4] = tested on: 3-hydroxy-3-methylglutaryl-coenzyme-A reductase (HMG-CoA reductase); details: in words; cited from earlier work

| SMILES | IC50 (HMG-CoA reductase) [M] | IC50 [1] [µM] | also measured |
| --- | --- | --- | --- |
| O=C1C[C@H](O)C[C@@H](/C=C/c2ccccc2CC2CCCCC2)O1 [16 j] | 9e-08 | 380 |  |
| CC(O)(CC(=O)O)CC(=O)O [3-Hydroxy-3-methylglutaric acid] |  |  | cholesterol-lowering action [2]: significant cholesterol-lowering action; cholesterol-lowering action [3]: significant cholesterol-lowering action |
| O=C1C[C@H](O)C[C@@H](/C=C/c2c(Cl)cccc2CC2CCCCC2)O1 [16 ac] | 7.1e-08 | 3.2 |  |
| CC[C@H](C)C(=O)O[C@H]1CCC=C2C=C[C@H](C)[C@H](CC[C@@H]3C[C@@H](O)CC(=O)O3)[C@H]21 [Compactin] |  |  | inhibition of HMG-CoA reductase [4]: inhibition |
| O=C1C[C@H](O)C[C@@H](/C=C/c2c(Cl)cc(Cl)cc2CC2CCCCC2)O1 [16 z] | 1.9e-08 | 1.9 |  |
| Cc1cccc(CCC2CCCCC2)c1/C=C/[C@@H]1C[C@@H](O)CC(=O)O1 [16 u] | 6.5e-07 | 200 |  |

Continued, in another order:

| IC50 (HMG-CoA reductase) [M] | IC50 [1] [µM] | SMILES | also measured |
| --- | --- | --- | --- |
| 2.3e-07 | 210 | O=C1C[C@H](O)C[C@@H](/C=C/c2c(Cl)cccc2Cc2ccc(Cl)cc2)O1 [16 ab] |  |
| 2.8e-07 |  | Cc1cccc(Cc2ccc(Cl)cc2)c1/C=C/[C@@H]1C[C@@H](O)CC(=O)O1 [16 y] |  |
| 8e-07 |  | O=C1C[C@H](O)C[C@@H](/C=C/c2ccccc2Cc2ccc(Cl)cc2)O1 [16 l] |  |
| 9e-07 | 500 | O=C1C[C@H](O)C[C@@H](/C=C/c2ccccc2CCc2ccc(F)cc2)O1 [16 g] |  |
